Like-named read-outs stand apart in the source and are kept apart here.
Assays:
human GLP-1 receptor [1] = target: T1, human GLP-1 receptor (Homo sapiens, UniProt P43220); assay: In vitro potency: CRE luciferase reporter gene assay in BHK cells expressing the human GLP-1 receptor; type: cell-based
T1 construct: expressed in transfected cells; host or cells: BHK cells (parent line BHKTS13), clone FCW467-12A; membrane preparation
Description: The purpose of this example is to test the activity, or potency, of the GLP-1 derivatives in vitro. The in vitro potency is the measure of human GLP-1 receptor activation in a whole cell assay.
In vitro potency was determined by measuring the response of the human GLP-1 receptor in a reporter gene assay. The assay was performed in a stably transfected BHK cell line that expresses the human GLP-1 receptor and contains the DNA for the cAMP response element (CRE) coupled to a promoter and the gene for firefly luciferase (CRE luciferase). When the human GLP-1 receptor is activated it results in the production of cAMP, which in turn results in the luciferase protein being expressed. When assay incubation is completed the luciferase substrate (luciferin) is added and the enzyme converts luciferin to oxyluciferin to produce bioluminescence. The luminescence is measured as the readout for the assay.
The cells were cultured at 5% CO2 in cell culture medium. They were aliquoted and stored in liquid nitrogen. Before each assay an aliquot was taken up and washed twice in PBS before being suspended at the desired concentration in the assay specific buffer.
The assay buffer consisted of 2% ovalbumin and 0.2% Pluronic F-68 in assay medium.
1) Cell stocks were thawed in a 37° C. water bath.
2) Cells were washed three times in PBS.
3) Cells were counted and adjusted to 5×10^3 cells/50 μl (1×10^5 cells/ml) in assay medium. A 50 μl aliquot of cells was transferred to each well in the assay plate.
4) Stocks of the test compounds and reference compounds were diluted to a concentration of 0.2 μM in assay buffer. […] 8) A 100 μl aliquot of steadylite plus reagent was added to each well of the assay plate. 9) Each assay plate was covered with aluminum foil to protect it from light and shaken for 30 min at room temperature. 10) Each assay plate was read in a BioTek Synergy 2 Multi-Mode Reader. Calculations and Results
The data from the BioTek Synergy 2 Multi-Mode Reader were transferred to GraphPad Prism software. The software performs a non-linear regression (log(agonist) vs response (three parameters)).
A minimum of two replicates were measured for each sample. The reported EC50 values are averages of all of the measured values for each compound.

human GLP-1 receptor [2] = target: T1, human GLP-1 receptor; assay: GLP-1 receptor binding: competitive binding assay (125I-GLP-1, SPA) on isolated membranes at low and high HSA
Description: The purpose of this example is to test the receptor binding of the GLP-1 derivatives in vitro. The receptor binding is a measure of affinity of a derivative for the human GLP-1 receptor.
Each derivative is added in a series of concentrations to isolated membranes containing the human GLP-1 receptor and displacement of the labelled ligand is monitored. The receptor binding is reported as the concentration at which half of the labelled ligand is displaced from the receptor, the IC50 value.
Buffer 1 consisted of 20 mM Na-HEPES plus 10 mM EDTA and pH was adjusted to 7.4. Buffer 2 consisted of 20 mM Na-HEPES plus 0.1 mM EDTA and pH was adjusted to 7.4. Assay buffer consisted of 50 mM HEPES supplemented with 5 mM EGTA, 5 mM MgCl2, 0.005% Tween 20 and pH was adjusted to 7.4. An 8% albumin stock consisted of HSA dissolved at 8% (w/v) in assay buffer. An 0.02% albumin stock consisted of HSA dissolved at 0.02% (w/v) in assay buffer.
The cells express the human GLP-1 receptor.
The cells were grown at 5% CO2 in DMEM, 10% fetal calf serum, 1% Pen/Strep (Penicillin/Streptomycin) and 1.0 mg/ml of the selection marker G418. To make a membrane preparation the cells were grown to approximately 80% confluence. The cells were washed twice in phosphate-buffered saline and harvested. The cells were pelleted using a brief centrifugation and the cell pellet was kept on ice. […] The homogenate was centrifuged for 15 minutes. The pellet was re-suspended (homogenised) in 10 ml buffer 2 and centrifuged. This step was repeated once more. The resulting pellet was re-suspended in buffer 2 and the protein concentration was determined. The membranes were aliquoted and stored at minus 80° C.
1. […] Assay continued with step 3.
2. For the receptor binding assay in the presence of high HSA (2%) 50 μl of the 8% albumin stock was added to each well of an assay plate. Assay continued with step 3.
4. Cell membrane aliquots were thawed and diluted to their working concentration. Fifty μl were added to each well in the assay plate.
5. WGA SPA beads were suspended in assay buffer at 20 mg/ml. The suspension was diluted to 10 mg/ml in assay buffer just prior to addition to the assay plate. Fifty μl were added to each well in the assay plate.
6. […] A 25 μl aliquot was reserved for measuring total counts/well.
7. The assay plate was incubated for 2 h at 30° C.
8. The assay plate was centrifuged for 10 min.
9. The assay plate was read in a Packard TopCount NXT instrument.
The data from the TopCount instrument were transferred to GraphPad Prism software. Individual replicates were analysed using non-linear regression. IC50 values were calculated by the software and reported in nM. The reported values are averages of all of the measured values for each compound.

[3] = Low HSA IC50, low HSA (max. 0.001% final assay concentration)
[4] = whole cell reporter gene assay, BHK cells, human GLP-1 receptor, average of at least two replicates, read-out: EC50
[5] = high HSA (2.0% final assay concentration), read-out: High HSA IC50

T1 sequence (P43220 24-463): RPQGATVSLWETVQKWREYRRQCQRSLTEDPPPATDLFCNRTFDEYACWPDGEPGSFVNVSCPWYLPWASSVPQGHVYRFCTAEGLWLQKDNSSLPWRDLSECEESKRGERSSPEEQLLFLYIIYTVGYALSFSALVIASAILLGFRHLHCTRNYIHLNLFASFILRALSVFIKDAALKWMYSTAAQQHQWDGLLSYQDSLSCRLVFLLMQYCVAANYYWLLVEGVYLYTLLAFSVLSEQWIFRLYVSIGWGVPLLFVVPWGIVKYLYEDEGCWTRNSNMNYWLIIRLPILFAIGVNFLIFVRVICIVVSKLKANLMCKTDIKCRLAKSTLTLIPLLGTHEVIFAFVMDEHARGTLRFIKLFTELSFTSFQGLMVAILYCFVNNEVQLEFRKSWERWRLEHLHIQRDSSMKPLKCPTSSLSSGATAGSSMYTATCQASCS

| SMILES | EC50 (human GLP-1 receptor [1]) | IC50 (human GLP-1 receptor [2]; High HSA IC50, high HSA (2.0% final assay concentration)) | IC50 (human GLP-1 receptor [2]; [3]) | EC50 (human GLP-1 receptor [1]; [4]) | IC50 (human GLP-1 receptor [2]; [5]) |
| --- | --- | --- | --- | --- | --- |
| CC[C@H](C)[C@H](NC(=O)[C@H](Cc1ccccc1)NC(=O)[C@H](CCC(=O)O)NC(=O)[C@H](CCCNC(=N)N)NC(=O)[C@H](C)NC(=O)[C@H](C)NC(=O)[C@H](CCC(N)=O)NC(=O)[C@H](CCC(=O)O)NC(=O)[C@H](CCC(=O)O)NC(=O)[C@H](CC(C)C)NC(=O)[C@H](Cc1ccc(O)cc1)NC(=O)[C@H](CO)NC(=O)[C@H](CO)NC(=O)[C@@H](NC(=O)[C@H](CC(=O)O)NC(=O)[C@H](CO)NC(=O)[C@@H](NC(=O)[C@H](Cc1ccccc1)NC(=O)[C@@H](NC(=O)CNC(=O)[C@H](CCC(=O)O)NC(=O)C(C)(C)NC(=O)[C@@H](N)Cc1c[nH]cn1)[C@@H](C)O)[C@@H](C)O)C(C)C)C(=O)N[C@@H](C)C(=O)N[C@@H](Cc1c[nH]c2ccccc12)C(=O)N[C@@H](CC(C)C)C(=O)N[C@H](C(=O)N[C@@H](CCCNC(=N)N)C(=O)NCC(=O)N[C@@H](CCCNC(=N)N)C(=O)N[C@@H](CCCCNC(=O)CN(CCCNC(=O)COCCOCCNC(=O)COCCOCCNC(=O)COCCOCCNC(=O)COCCOCCNC(=O)COCCOCCNC(=O)COCCOCCNC(=O)CC[C@H](NC(=O)CCCNC(=O)CCCCCCCCCCCCCCCS(=O)(=O)O)C(=O)O)CCCNC(=O)COCCOCCNC(=O)COCCOCCNC(=O)COCCOCCNC(=O)COCCOCCNC(=O)COCCOCCNC(=O)COCCOCCNC(=O)CC[C@H](NC(=O)CCCNC(=O)CCCCCCCCCCCCCCCS(=O)(=O)O)C(=O)O)C(=O)O)C(C)C [Example 18, N{Epsilon-37}-[2-[bis[3-[[2-[2-[2-[[2-[2-[2-[[2-[2-[2-[[2-[2-[2-[[2-[2-[2-[[2-[2-[2-[[(4S)-4-carboxy-4-[4-(16-sulfohexadecanoylamino)butanoylamino]butanoyl]amino]ethoxy]ethoxy]acetyl]amino]ethoxy]ethoxy]acetyl]amino]ethoxy]ethoxy]acetyl]amino]ethoxy]ethoxy]acetyl]amino]ethoxy]ethoxy]acetyl]amino]ethoxy]ethoxy]acetyl]amino]propyl]amino]acetyl]-[Aib8,Glu22,Arg26,Arg34,Lys37]-GLP-1-(7-37)-peptide] | 1.3 pM | 5.7 nM | 0.18 nM | – | – |
| CC[C@H](C)[C@H](NC(=O)[C@H](Cc1ccccc1)NC(=O)[C@H](CCC(=O)O)NC(=O)[C@H](CCCNC(=N)N)NC(=O)[C@H](C)NC(=O)[C@H](C)NC(=O)[C@H](CCC(N)=O)NC(=O)[C@H](CCC(=O)O)NC(=O)[C@H](CCC(=O)O)NC(=O)[C@H](CC(C)C)NC(=O)[C@H](Cc1ccc(O)cc1)NC(=O)[C@H](CO)NC(=O)[C@H](CO)NC(=O)[C@@H](NC(=O)[C@H](CC(=O)O)NC(=O)[C@H](CO)NC(=O)[C@@H](NC(=O)[C@H](Cc1ccccc1)NC(=O)[C@@H](NC(=O)CNC(=O)[C@H](CCC(=O)O)NC(=O)C(C)(C)NC(=O)[C@@H](N)Cc1c[nH]cn1)[C@@H](C)O)[C@@H](C)O)C(C)C)C(=O)N[C@@H](C)C(=O)N[C@@H](Cc1c[nH]c2ccccc12)C(=O)N[C@@H](CC(C)C)C(=O)N[C@H](C(=O)N[C@@H](CCCNC(=N)N)C(=O)NCC(=O)N[C@@H](CCCNC(=N)N)C(=O)N[C@@H](CCCCNC(=O)CN(CCCNC(=O)COCCOCCNC(=O)COCCOCCNC(=O)COCCOCCNC(=O)COCCOCCNC(=O)CC[C@H](NC(=O)[C@H]1CC[C@H](CNC(=O)CCCNC(=O)CCCCCCCCCCCCCCCS(=O)(=O)O)CC1)C(=O)O)CCCNC(=O)COCCOCCNC(=O)COCCOCCNC(=O)COCCOCCNC(=O)COCCOCCNC(=O)CC[C@H](NC(=O)[C@H]1CC[C@H](CNC(=O)CCCNC(=O)CCCCCCCCCCCCCCCS(=O)(=O)O)CC1)C(=O)O)C(=O)O)C(C)C [Example 19, N{Epsilon-37}-[2-[bis[3-[[2-[2-[2-[[2-[2-[2-[[2-[2-[2-[[2-[2-[2-[[(4S)-4-carboxy-4-[[4-[[4-(16-sulfohexadecanoylamino)butanoylamino]methyl]cyclohexanecarbonyl]amino]butanoyl]amino]ethoxy]ethoxy]acetyl]amino]ethoxy]ethoxy]acetyl]amino]ethoxy]ethoxy]acetyl]amino]ethoxy]ethoxy]acetyl]amino]propyl]amino]acetyl]-[Aib8,Glu22,Arg26,Arg34,Lys37]-GLP-1-(7-37)-peptide] | – | – | 0.15 nM | 1.4 pM | 42 nM |
| CC[C@H](C)[C@H](NC(=O)[C@H](Cc1ccccc1)NC(=O)[C@H](CCC(=O)O)NC(=O)[C@H](CCCNC(=N)N)NC(=O)[C@H](C)NC(=O)[C@H](C)NC(=O)[C@H](CCC(N)=O)NC(=O)[C@H](CCC(=O)O)NC(=O)[C@H](CCC(=O)O)NC(=O)[C@H](CC(C)C)NC(=O)[C@H](Cc1ccc(O)cc1)NC(=O)[C@H](CO)NC(=O)[C@H](CO)NC(=O)[C@@H](NC(=O)[C@H](CC(=O)O)NC(=O)[C@H](CO)NC(=O)[C@@H](NC(=O)[C@H](Cc1ccccc1)NC(=O)[C@@H](NC(=O)CNC(=O)[C@H](CCC(=O)O)NC(=O)C(C)(C)NC(=O)[C@@H](N)Cc1c[nH]cn1)[C@@H](C)O)[C@@H](C)O)C(C)C)C(=O)N[C@@H](C)C(=O)N[C@@H](Cc1c[nH]c2ccccc12)C(=O)N[C@@H](CC(C)C)C(=O)N[C@H](C(=O)N[C@@H](CCCNC(=N)N)C(=O)NCC(=O)N[C@@H](CCCNC(=N)N)C(=O)N[C@@H](CCCCNC(=O)CN(CCCNC(=O)COCCOCCNC(=O)COCCOCCNC(=O)COCCOCCNC(=O)COCCOCCNC(=O)COCCOCCNC(=O)CC[C@H](NC(=O)[C@H]1CC[C@H](CNC(=O)CCCNC(=O)CCCCCCCCCCCCCCCS(=O)(=O)O)CC1)C(=O)O)CCCNC(=O)COCCOCCNC(=O)COCCOCCNC(=O)COCCOCCNC(=O)COCCOCCNC(=O)COCCOCCNC(=O)CC[C@H](NC(=O)[C@H]1CC[C@H](CNC(=O)CCCNC(=O)CCCCCCCCCCCCCCCS(=O)(=O)O)CC1)C(=O)O)C(=O)O)C(C)C [Example 20, N{Epsilon-37}-[2-[bis[3-[[2-[2-[2-[[2-[2-[2-[[2-[2-[2-[[2-[2-[2-[[2-[2-[2-[[(4S)-4-carboxy-4-[[4-[[4-(16-sulfohexadecanoylamino)butanoylamino]methyl]cyclohexanecarbonyl]amino]butanoyl]amino]ethoxy]ethoxy]acetyl]amino]ethoxy]ethoxy]acetyl]amino]ethoxy]ethoxy]acetyl]amino]ethoxy]ethoxy]acetyl]amino]ethoxy]ethoxy]acetyl]amino]propyl]amino]acetyl]-[Aib8,Glu22,Arg26,Arg34,Lys37]-GLP-1-(7-37)-peptide] | – | – | 0.14 nM | 1.6 pM | 3.7 nM |

Reference: patent US11572398B2, “GLP-1 derivatives and uses thereof” (Novo Nordisk A/S, priority 2014, dated 2023)
